This note sets out measurements from ChEMBL document CHEMBL5579788 (Bioorg Med Chem Lett, 2024).

Series [1] addresses Replicase polyprotein 1ab (Severe acute respiratory syndrome coronavirus 2) (UniProt P0DTD1). In words: Inhibition of SARS CoV-2 main protease at 10 uM relative to control.
The target in series [2] is Replicase polyprotein 1ab (Severe acute respiratory syndrome coronavirus 2, UniProt P0DTD1). In words: (§1) Inhibition of SARS CoV-2 main protease.
Series [3] in a line: Cytotoxicity against HEK293-A cells assessed as reduction in cell viability by CCK-8 assay. In kind it is toxicity, cell-based. The settings on record: human. Background: Tetrazolium assays rely on reduction of a dye to a coloured formazan, in cell work by metabolically active cells.
Series [4] concerns the target Replicase polyprotein 1ab (Severe acute respiratory syndrome coronavirus 2) (UniProt P0DTD1). The series is described as §1.
For series [5] the target is unchanged. The series is described as follows: Inhibition of SARS CoV-2 main protease at 50 uM relative to control.
The subject of series [6] is SARS-CoV-2. The series is described as follows: Antiviral activity against wild type SARS-CoV-2 infected in Vero E6 cells assessed as inhibition of viral induced cytopathic effect incubated for 72 hrs by MTT assay. It is filed as functional, organism-based. The settings on record: Severe acute respiratory syndrome coronavirus 2, Vero C1008, 72 h. A general note: Protection from cytopathic effect is a common read-out in antiviral testing.

For series [7], the system named is SARS-CoV-2. In words: Antiviral activity against SARS-CoV-2. It is filed as functional, organism-based. Particulars: Severe acute respiratory syndrome coronavirus 2.

What is called inhibition is the relative decrease from the control value, in per cent. In series [1], `CCCN1C(=O)C[n+]2ccccc2C1C(=O)Nc1c(C)cccc1C` (centres undefined) registered an inhibition of less than 20%. One may read the IC50 as the concentration that inhibits the measured activity by half. A low value points to greater potency. As for `CCOc1ccc(NC(=O)C2c3cccc[n+]3CC(=O)N2c2ccccc2)cc1` (centres undefined), inhibition in series [2] was half-maximal at 5 µM (IC50). Further, in series [1], the inhibition is 80.4%.

In series [1], `Cc1ccccc1NC(=O)C1c2cccc[n+]2CC(=O)N1c1c(C)cccc1C` (centres undefined) yielded an inhibition of less than 20%.

With `O=C(Nc1ccccc1)C1c2cccc[n+]2CC(=O)N1c1ccccc1` (centres undefined), in series [2], the IC50 came to 5.2 µM. This compound also gave an inhibition in series [1] of 84.3%. As for `CCN1C(=O)C[n+]2ccccc2C1C(=O)Nc1c(C)cccc1C` (centres undefined), the inhibition in series [1] is less than 20%. By CC50 is commonly meant the concentration that lowers cell viability or growth by half. `Cc1ccc(N2C(=O)C[n+]3ccccc3C2C(=O)Nc2ccc(Cl)cc2)cc1Br` (centres undefined) showed a half-inhibitory concentration (IC50) in series [2] of 4.5 µM. The inhibition in series [1] is 78.2%. Also, in series [3], the 50% cytotoxic concentration (CC50) is greater than 300 µM.

As to `COc1ccc(N2C(=O)C[n+]3ccccc3C2C(=O)Nc2ccc(Cl)cc2)cc1` (centres undefined), the inhibition in series [1] came out at 57.7%. Still for that read-out and setting: the result for `COc1ccc(NC(=O)C2c3cccc[n+]3CC(=O)N2c2ccccc2O)cc1` (centres undefined) reads 26.5%; that for `CCOc1ccc(NC(=O)C2c3cccc[n+]3CC(=O)N2c2ccc(OC)cc2)cc1` (centres undefined), 30%. `O=C(Nc1ccc(Cl)cc1)C1c2cccc[n+]2CC(=O)N1c1ccc(Br)cc1` (centres undefined) showed an IC50 in series [2] of 8.5 µM. The same compound yielded an inhibition in series [1] of 82.2%. `Cc1cccc(N2C(=O)C[n+]3ccccc3C2C(=O)Nc2ccccc2)c1` (centres undefined) registered a half-maximal inhibitory concentration (IC50) in series [2] of 6.1 µM. In addition, the inhibition result in series [4] was “Dose-Dependent Effect”; in series [1] it was 80.5%; in series [5], greater than 50%. For `Cc1ccc(N2C(=O)C[n+]3ccccc3C2(C)C(=O)Nc2ccc(Cl)cc2)cc1` (centres undefined), the inhibition in series [1] was less than 20%. Turning to `Cc1cccc(C)c1NC(=O)C1c2cccc[n+]2CC(=O)N1CCO` (centres undefined), the inhibition in series [1] was less than 20%. In series [1], `Cc1ccc(N2C(=O)C[n+]3ccccc3C2C(=O)Nc2c(C)cccc2C)cc1Cl` (centres undefined) yielded an inhibition of less than 20%.

In series [2], `O=C(Nc1ccc(Cl)cc1)C1c2cccc[n+]2CC(=O)N1Cc1ccc2c(c1)OCO2` (centres undefined) returned an IC50 of 6.9 µM. Also, in series [1], the inhibition was 72.5%. In addition, the CC50 in series [3] is greater than 300 µM. As for `O=C(Nc1ccc(Cl)cc1)C1c2cccc[n+]2CC(=O)N1c1cccc(Cl)c1` (centres undefined), the half-maximal inhibitory concentration (IC50) in series [2] was 5.1 µM. Besides, in series [1], the inhibition amounted to 84.5%. Take `CCc1cccc(C)c1N1C(=O)C[n+]2ccccc2C1C(=O)Nc1ccccc1C` (centres undefined): the inhibition in series [1] was less than 20%. Regarding `O=C1C2C3C=CC(CO)(O3)C2C(=O)N1c1cc(C(F)(F)F)ccc1Cl` (centres undefined), the midpoint of inhibition in series [2], the IC50, lay at 4.4 µM. The inhibition result was “Dose-Dependent Effect” in series [4] and greater than 50% in series [5].

On to `Cc1cccc(C)c1NC(=O)C1c2cccc[n+]2CC(=O)N1c1ccc2c(c1)OCO2` (centres undefined), for which the inhibition in series [1] is less than 20%. With `Cc1ccccc1N1C(=O)C[n+]2ccccc2C1C(=O)Nc1ccccc1` (centres undefined), the IC50 in series [2] is 5.6 µM. The same compound had an inhibition in series [1] of 78.7%. The compound `Cc1cccc(C)c1NC(=O)C1c2cccc[n+]2CC(=O)N1Cc1ccc2c(c1)OCO2` (centres undefined) returned an inhibition in series [1] of less than 20%. As for `CN1C(=O)C[n+]2ccccc2C1C(=O)Nc1ccccc1` (centres undefined), the IC50 in series [2] came out at 8.9 µM. In series [1], this compound registered an inhibition of 93.3%. In series [1], `Cc1cccc(C)c1NC(=O)C1c2cccc[n+]2CC(=O)N1c1ccc(Cl)cc1` (centres undefined) gave an inhibition of 50.1%. `Cc1ccc(N2C(=O)C[n+]3ccccc3C2C(=O)Nc2ccccc2C)cc1` (centres undefined) came in with an IC50 in series [2] of 6.1 µM. The same compound came in with an inhibition in series [1] of 83%.

`CC1(C(=O)Nc2ccc(Cl)cc2)c2cccc[n+]2CC(=O)N1c1ccc(Cl)cc1` (centres undefined) displayed an inhibition in series [1] of less than 20%. For orientation: EC50 means the concentration that produces a half-maximal response. On to `O=C(NC1CCCC1)C(=O)[C@H](CC1CCNC1=O)NC(=O)[C@@H]1[C@H]2CCC[C@H]2CN1C(=O)[C@@H](NC(=O)C(F)(F)F)C1CCCCC1` (some centres undefined), for which the EC50 with SARS-CoV-2 [6] stood at 95 nM. Compound `O=C(Nc1ccc(Cl)cc1)C1c2cccc[n+]2CC(=O)N1c1ccc(Cl)cc1` (centres undefined) showed an IC50 in series [2] of 9.6 µM. The compound further came in with an inhibition in series [1] of 75.7%.

In series [1], `CCOc1ccc(N2C(=O)C[n+]3ccccc3C2C(=O)Nc2ccc(Cl)cc2)cc1` (centres undefined) gave an inhibition of 47.2%. The same measure, in the same setting: the result for `Cc1cccc(C)c1NC(=O)C1c2cccc[n+]2CC(=O)N1c1cccc(Cl)c1` (centres undefined) reads 31%; that for `Cc1cccc(C)c1NC(=O)C1c2cccc[n+]2CC(=O)N1c1cccc(C(F)(F)F)c1` (centres undefined), less than 20%.

Turning to `Cc1cccc(C)c1NC(=O)C1c2cccc[n+]2CC(=O)N1C` (centres undefined), half-maximal inhibition in series [2] (IC50) required 8.3 µM. This compound also showed an inhibition in series [1] of 85.8%. For `Cc1cc(C)cc(N2C(=O)C[n+]3ccccc3C2C(=O)Nc2ccc(Cl)cc2)c1` (centres undefined) the same measures were 8.8 µM and 75.7%. Consider `O=C[C@H](C[C@@H]1CCNC1=O)NC(=O)[C@H](Cc1cccc(F)c1)NC(=O)c1cc2ccccc2[nH]1`, for which the concentration giving a half-maximal response (EC50) in the series with SARS-CoV-2 [7] was determined as 720 nM. On to `Cc1cccc(C)c1NC(=O)C1(C)c2cccc[n+]2CC(=O)N1c1ccc(Cl)cc1` (centres undefined), for which the inhibition in series [1] is 32.1%. As for `Cc1cc(C)cc(N2C(=O)C[n+]3ccccc3C2C(=O)Nc2ccccc2C)c1` (centres undefined), the inhibition in series [1] was found to be 66.6%. In series [1], `C=CCN1C(=O)C[n+]2ccccc2C1C(=O)Nc1c(C)cccc1C` (centres undefined) registered an inhibition of less than 20%. Regarding `O=C(Nc1ccccc1)C1c2cccc[n+]2CC(=O)N1c1ccc(Br)cc1` (centres undefined), the IC50 in series [2] was 8.6 µM. This compound registered an inhibition in series [1] of 71.3%. For `CC(C)(C)C(=O)N[C@H](C(=O)N1CC2(C[C@H]1C(=O)N[C@H](C#N)C[C@@H]1CCNC1=O)SCCS2)C(C)(C)C`, in series [2], the half-maximal inhibitory concentration (IC50) was 0.022 µM. For the same compound, the concentration for a half-maximal effect (EC50) in the series on SARS-CoV-2 [7] was found to be 570 nM. In series [1], `COc1ccccc1N1C(=O)C[n+]2ccccc2C1C(=O)Nc1c(C)cccc1C` (centres undefined) came in with an inhibition of less than 20%. `Cc1ccccc1NC(=O)C1c2cccc[n+]2CC(=O)N1C` (centres undefined): the half-maximal inhibitory concentration (IC50) in series [2] stood at 4 µM. In addition, the inhibition in series [1] worked out at 75.3%. Further, the CC50 in series [3] is greater than 300 µM. On to `CCOc1ccc(NC(=O)C2c3cccc[n+]3CC(=O)N2c2ccc(OCC)cc2)cc1` (centres undefined), for which the inhibition in series [1] came to 21.7%.
